“Also recorded” adds a separate entry of the source.
Experiments:
[1] = system: IL-2, IL-4, IL-5, IL-6, IL-13, IL-17A, IL-28A, IL-33, IFN-α, IFN-β, IFN-γ, IFN-λ, Eotaxin in the nasal secretions; test: Cytokine levels in the nasal secretions measured by Luminex; format: in vivo, human; settings: for IL-2 in nasal secretions, after treatment: mean ± SD
Method: (§1) Two pieces of 1.0 centimeter (cm)×1.5 cm sterile medical sponge are gently placed into the patient's bilateral nasal cavity for 1-5 minutes (min). After the sponge adsorbs enough the nasal secretions, the sponge is gently removed and put into a 2 milliliters (mL) syringe. The nasal secretions are squeezed out and collected in a 1.5 mL centrifuge tube, centrifuged at 3000 revolutions per minute (rpm) for 5 min, and the supernatant is taken and placed in a refrigerator at −80° C. for testing. Eosinophil cationic protein (ECP) in the nasal secretions is detected by enzyme-linked immunosorbent assay (ELISA). The ECP-ELISA kit is from Zhongmin Taike Biotechnology Co., Ltd. Cytokine levels of interleukin (IL)-2, IL-4, IL-5, IL-6, IL-13, IL-17A, IL-28A, IL-33, interferon (IFN)-α, IFN-β, IFN-γ, IFN-λ, and Eotaxin in the nasal secretions are measured by using Luminex (R&D; LXSAHM-13).

[2] = system: Eosinophil cationic protein (ECP); test: ECP in the nasal secretions by ELISA; format: in vivo, human
Method: as §1

[3] = system: eosinophils in nasal secretions; test: Nasal secretion smears, percentage of eosinophils in inflammatory cells; format: in vivo, human
Source text: The patients blow their nose (both sides), or gently rotate a glass rod at a front end of the patients' nasal vestibule to obtain the nasal secretions, avoiding rubbing the mucosal surface as much as possible. The obtained nasal secretions are evenly and lightly coated on slides, and a coverage area of the nasal secretion smear is required to exceed ⅔ of the slides. After natural air drying, the slides are dyed with Wright-Giemsa stain (Baso Diagnostics Inc. Zhuhai; China). After dyeing, cells are counted under an optical microscope. A percentage of eosinophils in inflammatory cells under 10×100 times microscope is observed, and an average value of 5 visual fields is taken as a result.

nasal scraping cells = test: Transcriptome sequencing (RNA-seq) of nasal scraping cells; format: in vivo, human
Method: (§2) The scraped mucosal epithelial cells are placed in a TRIzol™ reagent (Invitrogen™) and stored in liquid nitrogen for processing. Library preparation and high-throughput sequencing, data analysis, ribonucleic acid (RNA) sequence and deoxyribonucleic acid (DNA) virus sequence enrichment analysis are performed by Seqhealth Technology Co., Ltd. (China; wuhan). Sample quality analysis is performed by Nanodrop™ OneC spectrophotometer to detect expression at A260 and A280. Qualified samples are finally quantified by QubitR®3.0 fluorometer and Qubit™ RNA broad-range (BR) Assay kits. The original data is first filtered by Trimomatic (Version 0.36). Counting by FeatureCounts, and then calculate reads per kilobase of exon model per million mapped reads (RPKM). Differentially expressed genes between groups are identified using an edgeR package (Version 3.12.1). In analysis, P value<0.05 and fold change (FC) higher than 2 are considered to be significant differences in gene expression between groups.

[4] = system: EB virus, human-cytomegalovirus, HSV 1, 2, 3, 6, 7, 8; test: DNA virus sequence enrichment analysis of nasal scraping cells; format: in vivo; settings: GCV effective group
Method: as §2

[5] = system: peripheral blood mononuclear cells (PBMCs); test: GCV medicine test of the PBMCs in vitro (flow cytometry); format: cell-based, human; settings: 400 μM GCV, 48 hours
Method: The peripheral blood of patients with the intractable AR is collected. The peripheral blood mononuclear cells (PBMCs) are isolated within 8 hours using a lymphocyte separation medium (MP biomedicals) and suspended in Roswell Park Memorial Institute (RPMI) 1640 medium (Gibco™) containing 10% heat-inactivated fetal bovine serum (Gibco™, Grand Island) and 1% penicillin and streptomycin (Gibco™) at a density of 1×10^6/mL. Three wells are set for each sample, including: a non treated well (also referred to as NT well), a well adding 1 microliter (μL) dimethyl sulfoxide (DMSO; Solarbio®) (also referred to as DMSO well), and a well adding 400 micromoles per liter (μM) of the GCV (diluted with DMSO, Selleck) (also referred to as GCV well). The PBMCs are cultured in a 24-well cell culture plate (Corning®, NY) under different stimulations in a 5% CO2, 37° C. cell incubator. According to the instructions of Leukocyte Activation Cocktail with BD GolgiPlug™ (BD Bioscience), the PBMCs are added to a cell culture medium 4-6 hours before dyeing to improve the dyeing effect of intracellular cytokines. After 48 hours of cell culture, the cell solution is collected and dyed with anti-human fixable viability stain 510 (FVS-BV510), brilliant violet 605 anti-human cluster of differentiation 4 antibody (CD4-BV605), and […] isothiocyanate isomer I (CD8-FITC), and then dyed with interleukin-4-brilliant violet™ 421 dyes (IL-4-BV421), interleukin-17A-phycoerythrin (IL-17A-PE), human interferon-gamma-PE-cyanine7 dye (IFNγ-PE-Cy7), and FOXP3-BB700 (all from BD Bioscience) after breaking the nucleus with a fixed nuclear breaker (eBioscience™). BD LSRFortessa™ X-20 (BD Biosciences, USA) and FlowJo™ software (FlowJo, Ashland, OR USA) are used for analysis.

[6] = GCV effective group and GCV ineffective group
[7] = GCV effective group n=6, before vs after, P<0.05 and FC>2
[8] = GCV effective group n=6, nasal scraping cells
[9] = PBMCs of GCV effective and ineffective groups

Nc1nc(O)c2ncn(COC(CO)CO)c2n1 [GCV, Ganciclovir]
all cytokines and inflammatory factors in nasal secretions, change after GCV treatment [1, 6]: do not change
IFN-β in nasal secretions, after treatment ([1]; GCV effective group, before 26.49 ± 26.34): 38.86 ± 54.29 pg/mL
IFN-α in nasal secretions, after treatment ([1]; GCV effective group, before 31.09 ± 28.65): 32.77 ± 23.83 pg/mL
IL-6 in nasal secretions, after treatment ([1]; GCV effective group, before 39.10 ± 34.59): 30.44 ± 27.04 pg/mL
IL-17A in nasal secretions, after treatment ([1]; GCV effective group, before 55.38 ± 27.4): 58.92 ± 43.93 pg/mL
IL-4 in nasal secretions, after treatment ([1]; GCV effective group, before 109.67 ± 23.95): 105.32 ± 25.44 pg/mL
IFN-γ in nasal secretions, after treatment ([1]; GCV effective group, before 181.83 ± 266.06): 120.24 ± 116.93 pg/mL
IL-5 in nasal secretions, after treatment ([1]; GCV effective group, before 197.49 ± 388.67): 134.24 ± 172.57 pg/mL
Eotaxin in nasal secretions, after treatment ([1]; GCV effective group, before 206.5 ± 212.85): 153.51 ± 101.87 pg/mL
IL-33 in nasal secretions, after treatment ([1]; GCV effective group, before 277.39 ± 303.34): 293.62 ± 396.68 pg/mL
IFN-λ in nasal secretions, after treatment ([1]; GCV effective group, before 313.99 ± 194.7): 331.23 ± 237.77 pg/mL
IL-13 in nasal secretions, after treatment ([1]; GCV effective group, before 455.81 ± 190.16): 397.80 ± 116.61 pg/mL
IL-28A in nasal secretions, after treatment ([1]; GCV effective group, before 718.08 ± 263.12): 740.68 ± 214.99 pg/mL
IL-2 in nasal secretions, after treatment ([1]; GCV effective group, before 148.69 ± 43.59): 132.85 ± 40.51 pg/mL
IFN-β in nasal secretions, after treatment ([1]; GCV ineffective group, before 19.58 ± 12.05): 17.86 ± 8.57 pg/mL
Eotaxin in nasal secretions, after treatment ([1]; GCV ineffective group, before 36.79 ± 25.41): 50.35 ± 47.92 pg/mL
IL-6 in nasal secretions, after treatment ([1]; GCV ineffective group, before 49.62 ± 10.4): 65.53 ± 44.86 pg/mL
IL-17A in nasal secretions, after treatment ([1]; GCV ineffective group, before 59.88 ± 40.6): 48.13 ± 18.73 pg/mL
IFN-γ in nasal secretions, after treatment ([1]; GCV ineffective group, before 106.77 ± 51.92): 80.25 ± 44.49 pg/mL
IFN-α in nasal secretions, after treatment ([1]; GCV ineffective group, before 129.83 ± 170.32): 57.51 ± 49.01 pg/mL
IL-4 in nasal secretions, after treatment ([1]; GCV ineffective group, before 151.81 ± 71.34): 116.44 ± 53.74 pg/mL
IL-5 in nasal secretions, after treatment ([1]; GCV ineffective group, before 218.52 ± 189.78): 70.26 ± 57.39 pg/mL
IFN-λ in nasal secretions, after treatment ([1]; GCV ineffective group, before 371.83 ± 248.73): 363.86 ± 203.72 pg/mL
IL-13 in nasal secretions, after treatment ([1]; GCV ineffective group, before 382.32 ± 104.87): 282.34 ± 55.29 pg/mL
IL-28A in nasal secretions, after treatment ([1]; GCV ineffective group, before 392.09 ± 218.69): 447.41 ± 202.35 pg/mL
IL-33 in nasal secretions, after treatment ([1]; GCV ineffective group, before 583.28 ± 515.20): 436.61 ± 500.63 pg/mL
IL-2 in nasal secretions, after treatment ([1]; GCV ineffective group, before 139.75 ± 59.26): 125.13 ± 58.88 pg/mL
ECP in nasal secretions, change after GCV treatment [2, 6]: no significant change
ECP in nasal secretions, after treatment ([2]; GCV effective group, before 42.38 ± 41.04): 20.18 ± 18.42 µg/mL
ECP in nasal secretions, after treatment ([2]; GCV ineffective group, before 82 ± 18.01): 45.993 ± 37.12 µg/mL
percentage of eosinophils in nasal secretions, change after GCV treatment [3, 6]: no significant change
Nasal secretion eosinophils, after treatment ([3]; GCV effective group, before 90.54 ± 6.24): 93.23 ± 11.99%
Nasal secretion eosinophils, after treatment ([3]; GCV ineffective group, before 56 ± 46.30): 54 ± 44.54%
genes down-regulated after GCV treatment (nasal scraping cells; [7]): 160 genes
genes up-regulated after GCV treatment (nasal scraping cells; [7]): 25 genes
CXCL9 expression after GCV treatment (nasal scraping cells; [8]): up-regulated
CXCL10 expression after GCV treatment (nasal scraping cells; [8]): up-regulated
MUC5B expression after GCV treatment (nasal scraping cells; [8]): down-regulated
enrichment of genes of EB virus, human-cytomegalovirus, HSV 1, 2, 3, 6, 7, 8 before and after GCV treatment (FIG. 3B) [4]: no statistical difference
percentage of CD4+IFNγ+ cells, change [5, 9]: no significant change
percentage of CD4+IL4+ cells, change [5, 9]: no significant change
percentage of CD4+IL17A+ cells, change [5, 9]: no significant change
percentage of CD8+IFNγ+ cells/CD4+, change [5, 9]: no significant change
percentage of CD4+FOXP3+ cells/CD4+ cells, GCV well vs DMSO well ([5]; PBMCs of GCV effective group n=26, p<0.001): significantly increased; also recorded: significantly higher
percentage of CD4+FOXP3+ cells/CD4+ cells, GCV well vs DMSO well ([5]; PBMCs of GCV ineffective group n=14, p<0.05): significantly lower
